One test deals with Dopamine D5 (Homo sapiens, UniProt P21918). The test can be described thus: Dopamine receptor radioligand binding assay. The note with it: inhibition of specific binding. As to the method:
(§1) The assays were performed, under standard conditions, as described in the following publications: Dearry A et al., Nature; 1990; 347: 72-76; Bunzow J R et al., Nature; 1988; 336: 783-787; Sokoloff P. et al., Nature; 1990; 347: 146-151; Van Tol H H M et al., Nature; 1991; 350: 610-614; Van Tol H H M et al., Nature; 1992; 358: 149-152; Sibley D R et al., Trend Pharmacol. Sci.; 1992; 13:61-69.
(§2) Biochemical assay results are presented as the percent inhibition of specific bindings at a single compound concentration. Responses are considered significant for binding activities >50%.

For a further test, the target named is Dopamine D2L (Homo sapiens, UniProt P14416). As to the kind of experiment: Dopamine receptor radioligand binding assay. The note with it: inhibition of specific binding. The procedure:
as §1, §2

The next test concerns the target T1, Dopamine D4.4 (Homo sapiens, UniProt P21917).
T1 sequence (P21917 1-419): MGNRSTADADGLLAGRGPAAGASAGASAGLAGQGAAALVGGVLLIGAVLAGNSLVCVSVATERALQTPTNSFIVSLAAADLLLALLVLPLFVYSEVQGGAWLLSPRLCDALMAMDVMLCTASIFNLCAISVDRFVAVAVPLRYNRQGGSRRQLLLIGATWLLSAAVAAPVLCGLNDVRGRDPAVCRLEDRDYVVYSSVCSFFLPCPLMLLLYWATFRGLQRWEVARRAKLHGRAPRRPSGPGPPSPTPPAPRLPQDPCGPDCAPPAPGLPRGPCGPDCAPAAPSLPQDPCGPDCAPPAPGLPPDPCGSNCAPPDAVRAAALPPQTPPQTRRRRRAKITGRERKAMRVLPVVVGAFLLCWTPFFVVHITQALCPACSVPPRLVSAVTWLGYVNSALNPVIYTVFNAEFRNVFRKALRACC
As to the kind of experiment: Dopamine receptor radioligand binding assay. The note with it: inhibition of specific binding. As to the method: as §1, §2

Another test concerns the target Dopamine D3 (Homo sapiens, UniProt P35462). The test can be described thus: Dopamine receptor radioligand binding assay. The note with it: inhibition of specific binding. The procedure:
as §1, §2

The subject of a further test is Dopamine D4.2. As to the kind of experiment: Dopamine receptor radioligand binding assay. Particulars: inhibition of specific binding. The procedure: as §1, §2
A further test deals with Dopamine D1 (Homo sapiens, UniProt P21728). As to the kind of experiment: Dopamine receptor radioligand binding assay. The note with it: inhibition of specific binding. The procedure: as §1, §2
Dopamine D1, sequence (P21728 whole entry): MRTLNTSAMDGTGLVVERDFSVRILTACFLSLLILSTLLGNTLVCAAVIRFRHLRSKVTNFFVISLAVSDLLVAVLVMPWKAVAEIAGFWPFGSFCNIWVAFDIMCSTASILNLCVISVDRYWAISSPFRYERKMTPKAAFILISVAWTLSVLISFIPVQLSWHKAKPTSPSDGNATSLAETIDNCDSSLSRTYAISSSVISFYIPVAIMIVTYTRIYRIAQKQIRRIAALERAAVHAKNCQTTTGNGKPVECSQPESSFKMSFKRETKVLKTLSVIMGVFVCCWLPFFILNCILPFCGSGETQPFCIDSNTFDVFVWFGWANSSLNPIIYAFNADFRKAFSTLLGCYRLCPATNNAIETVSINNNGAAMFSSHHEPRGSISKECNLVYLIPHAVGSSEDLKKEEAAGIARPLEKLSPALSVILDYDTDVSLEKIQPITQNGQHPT
A further test relates to Dopamine D4.7. As to the kind of experiment: Dopamine receptor radioligand binding assay. Particulars: inhibition of specific binding. The procedure:
as §1, §2

Another test deals with Dopamine D2S (Homo sapiens, UniProt P14416). As to the kind of experiment: Dopamine receptor radioligand binding assay. Particulars: inhibition of specific binding. As to the method: as §1, §2
Dopamine D2S, sequence (P14416 1-414 isoform P14416-2): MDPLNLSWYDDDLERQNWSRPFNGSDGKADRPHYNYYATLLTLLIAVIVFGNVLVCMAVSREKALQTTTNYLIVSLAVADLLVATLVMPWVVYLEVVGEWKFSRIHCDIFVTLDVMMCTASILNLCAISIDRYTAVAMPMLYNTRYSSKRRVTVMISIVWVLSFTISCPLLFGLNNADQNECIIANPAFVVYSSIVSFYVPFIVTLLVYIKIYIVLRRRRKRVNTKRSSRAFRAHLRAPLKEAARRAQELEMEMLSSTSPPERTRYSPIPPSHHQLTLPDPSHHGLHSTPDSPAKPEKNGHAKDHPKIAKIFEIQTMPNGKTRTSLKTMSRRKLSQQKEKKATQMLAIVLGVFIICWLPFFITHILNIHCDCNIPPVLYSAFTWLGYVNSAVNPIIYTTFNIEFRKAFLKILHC
The subject of test [1] is anxiety-like behaviour in Open Field. As to the kind of experiment: Anxiety open field test. Particulars: open field test in rats. Format: in vivo. An excerpt:
The Open Field test is commonly used to assess locomotor, exploratory and anxiety-like behaviour in rats or mice. This test is particularly useful in evaluating the effects of anxiolytic and anxiogenic drugs, locomotor responses to drug and as well as behavioural responses to novelty.
The Open Field test task approaches the conflict between the innate fear that rats have of the central area of a novel or brightly lit open field versus their desire to explore new environments. When anxious, the natural tendency of rodents is to prefer staying closed to the walls (thigmotaxis). In this context, anxiety-related behaviour is measured by the degree to which the rat avoids the center of the Open Field test.
The Open Field arena consists of an empty and bright square arena surrounded by walls to prevent animal from escaping. The arena (90 cm×90 cm×40 cm height) was divided into 6×6 grid of equally-sized squares using black tape. […]
The rat is placed in the center of the arena and its behaviour recorded on video over a chosen period (from 5 to 15 min) and scored.
Time spent in each category of square is recorded. In addition, the fifteen minute open-field test is divided into 3 blocks of 5 minutes and total locomotor activity is scored as the number of square entries in each five minute block. […] Finally, the latency to visit the large centre and any one of the four corners is scored manually. […]

Test [2] relates to MK-801 induced hyperlocomotion. As to the kind of experiment: MK-801 induced hyperlocomotion in mice. The format is in vivo. Particulars: MK-801 induced locomotion in mice. As to the method: Glutamate N-methyl-D-aspartate (NMDA) receptor antagonists, like phencyclidine (PCP) or MK-801, elicit schizophrenia-like symptoms in humans and behavioural abnormalities in animals, such as hyperactivity. Atypical antipsychotics decrease hyperlocomotion produced in mice by MK-801 or PCP and this represents a commonly used animal models predictive of efficacy against the symptoms of schizophrenia. Vehicle or compound was injected 30-35 min before the animal entered the activity chambers. Hyperlocomotion was produced in mice by administration of MK-801 (0.3 mg/kg) 15 min before the animal entered the activity chambers (i.e., […] min after vehicle or compound administration) and the total distance traveled in centimeters was determined during a 15-30 min session. The increase in MK-801-induced total distance traveled were attenuated by active compounds.

The next test has as its system marble burying behaviour. The test can be described thus: Marble Burying test. The note with it: 80 mg/kg po; 30 min before test; CD1 mice; FIG. 1. Format: in vivo. The text has this: The Marble Burying Test is considered an animal model of anxiety/obsessive-compulsive disorder (OCD). Mice which are placed individually in a cage containing a number of glass marbles spontaneously tend to bury the glass marbles present.
Several compounds which attenuate anxiety, depression, psychosis or obsessive-compulsive disorders affect this behaviour reducing the number of marbles buried. Therefore the test has predictive validity for anti-anxiety and anti-OCD potential compounds.
CD1 mice were injected with ralfinamide at the doses of 10, 30, 60 and 80 mg/kg, po; fluoxetine (FLX) at 10 mg/kg, sc or saline and returned to their home cage. After 30 min (ralfinamide) or 60 min (fluoxetine), mice were individually placed in a new cage contained 12 evenly spaced glass marbles. After 30 min mice were removed from the cages and the number of glasses buried for at least two-thirds in the sawdust was counted.
One-way ANOVA followed by Bonferroni's multiple comparison test; n=6-8 mice per group *p<0.05; p***<0.001 versus control group

Consider one molecule from patent US8445539B2, “Alpha-aminoamide derivatives useful in the treatment of psychiatric disorders” (priority 2007, dated 2013).

Dopamine D3, sequence (P35462 whole entry): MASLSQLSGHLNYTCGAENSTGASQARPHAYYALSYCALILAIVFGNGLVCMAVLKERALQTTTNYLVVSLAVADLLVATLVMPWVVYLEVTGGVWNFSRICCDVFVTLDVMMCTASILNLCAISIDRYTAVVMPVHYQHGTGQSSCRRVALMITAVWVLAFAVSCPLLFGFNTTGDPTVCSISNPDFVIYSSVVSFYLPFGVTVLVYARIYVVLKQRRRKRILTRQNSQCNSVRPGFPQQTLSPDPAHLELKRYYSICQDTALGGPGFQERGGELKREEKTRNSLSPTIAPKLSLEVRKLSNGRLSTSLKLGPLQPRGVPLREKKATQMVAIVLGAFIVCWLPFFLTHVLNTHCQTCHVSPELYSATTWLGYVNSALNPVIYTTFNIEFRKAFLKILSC
Dopamine D5, sequence (P21918 whole entry): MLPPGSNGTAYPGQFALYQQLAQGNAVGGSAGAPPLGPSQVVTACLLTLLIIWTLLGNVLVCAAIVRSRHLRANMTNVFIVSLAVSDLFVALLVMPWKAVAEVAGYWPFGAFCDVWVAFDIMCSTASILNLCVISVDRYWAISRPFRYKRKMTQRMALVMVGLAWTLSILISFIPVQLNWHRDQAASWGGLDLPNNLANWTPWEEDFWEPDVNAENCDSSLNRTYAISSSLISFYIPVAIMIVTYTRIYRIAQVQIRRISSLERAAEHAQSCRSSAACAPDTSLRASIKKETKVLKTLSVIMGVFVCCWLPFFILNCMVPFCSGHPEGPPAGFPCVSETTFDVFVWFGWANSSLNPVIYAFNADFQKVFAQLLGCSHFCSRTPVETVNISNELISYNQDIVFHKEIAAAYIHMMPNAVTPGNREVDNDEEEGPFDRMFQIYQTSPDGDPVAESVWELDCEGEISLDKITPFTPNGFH
Dopamine D2L, sequence (P14416 whole entry): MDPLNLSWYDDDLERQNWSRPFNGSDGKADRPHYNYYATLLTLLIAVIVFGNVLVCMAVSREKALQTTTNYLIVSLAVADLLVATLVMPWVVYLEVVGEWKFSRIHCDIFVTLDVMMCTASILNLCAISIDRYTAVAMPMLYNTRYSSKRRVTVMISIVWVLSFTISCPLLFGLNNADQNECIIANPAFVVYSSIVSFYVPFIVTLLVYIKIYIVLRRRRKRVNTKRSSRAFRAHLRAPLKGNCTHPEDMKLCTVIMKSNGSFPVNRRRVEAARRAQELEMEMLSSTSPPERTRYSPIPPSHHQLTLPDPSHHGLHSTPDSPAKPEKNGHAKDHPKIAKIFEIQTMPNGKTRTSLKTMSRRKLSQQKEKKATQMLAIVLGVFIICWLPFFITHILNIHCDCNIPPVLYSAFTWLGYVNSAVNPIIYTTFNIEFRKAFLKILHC

In the case of `C[C@H](NCc1ccc(OCc2ccccc2F)cc1)C(N)=O` [Ralfinamide methanesulfonate, (S)-(+)-2-[4-(2-fluorobenzyloxy)benzylamino]propanamide], the % Inhibition (in general, the relative decrease from the control value, in per cent) at 10 μm is on record as “no inhibition” on Dopamine D5; “no inhibition” on Dopamine D2L; “no inhibition” at Dopamine D4.4; 7% at Dopamine D3; 1% in the test on Dopamine D4.2; “no inhibition” on Dopamine D1. Besides, the “% Inhibition at 10 μm” value in the test with Dopamine D4.7 and on Dopamine D2S was “no inhibition” in each case. Moreover, the “Activity in anxiety animal model (Example 6)” value in test [1] is listed as “active”. Moreover, the “Activity in schizophrenia animal model (Example 5)” value in test [2] is “active”. Further, the “Number of buried marbles” value in the test on marble burying behaviour is reported as “significantly reduces”.
